Laboratory results: US9237744B2, “Preservative solution for cells, tissues and organs containing rare sugar and preservative method thereof” (NATIONAL UNIVERSITY CORPORATION KAGAWA UNIVERSITY, priority 2004, dated 2016)

How the values were obtained:
[1] = test system: Hela, OVCAR-3, HaCaT, HFB and NIH3T3 cells; assay: Cell growth after thawing of cells freeze-preserved at optimum concentrations, MTT assay (Example 2); format: cell-based, human, mouse
Protocol: 1. Cells used: Hela (human cervical cancer), OVCAR-3 (human ovarian cancer), HaCaT (human skin keratinocyte), HFB (human fibroblast) and NIH3T3 (mouse fibroblast). Saccharides D-allose and the like were added to culture medium, Cell Banker (commercially available preservative solution) and DMSO at concentrations of 0.2, 0.4, 0.6, 0.8 and 1M. Monosaccharides such as D-glucose, D-fructose, D-mannose and D-galactose which are present in nature in large quantities and D-allose, D-altrose, D-psicose, L-psicose, D-sorbose, L-sorbose, D-tagatose, L-tagatose and L-fructose as rare sugars were used. Further, trehalose as disaccharide was used. The cells frozen with D-allose were freeze-preserved at −80° C. and in liquid nitrogen for 24 hours, 1 week and 4 weeks. 2) Cell growth: The cells were freeze-preserved with D-allose and trehalose at optimum concentrations for 24 hours, thawed, and spread on a 96-well plate such that the concentration was 0.5-1×10^4 cells/well/0.1 ml. After a prescribed period of time, the cell growth was measured by MTT assay.

[2] = test system: NIH3T3 (mouse fibroblast); assay: Cell growth after thawing of freeze-preserved cells, MTT assay (Example 1); format: cell-based; details: same experiment as with HFB
Protocol: (§1) 1. Cells used: Hela (human cervical cancer), OVCAR-3 (human ovarian cancer), HuH-7 (human liver cancer), HaCaT (human skin keratinocyte), HFB (human fibroblast) and NIH3T3 (mouse fibroblast). Saccharides D-allose and the like were added to culture medium, Cell Banker (commercially available preservative solution) and DMSO at concentrations of 25 mM and 50 mM. Monosaccharides such as D-glucose, D-fructose, D-mannose and D-galactose which are present in nature in large quantities and D-allose, D-psicose, D-altrose, allitol, D-talitol and L-sorbose as rare sugars were used. Further, trehalose as disaccharide was used. The cells were preserved for 24 hours by being frozen at −80° C. 2) Cell growth: One day later, the cells were thawed, and 0.25˜2×10^4 cells/well were spread on 96-well plate with 0.1 mL medium. After a prescribed period of time, the cell growth was measured by MTT assay.

HFB (human fibroblast) = assay: as above; format: cell-based; details: culture medium plus sugar, in comparison with other cases (FIG. 2)
Protocol: as §1

[3] = Murata et al., J. Bioengineering and Bioscience, 2003; cited from earlier work
ICAM-1 mRNA = assay: Kidney preservation in UW solution at 4° C., ICAM-1 mRNA by northern blot; design: species or system rat; details: D-allose 5 mg/ml in UW solution, clearly observed after 12 hours and 24 hours (FIG. 10)
Protocol: Object: male rats, 200 g to 280 g Preparations of experiment: A rat is fasted 12 hours before the experiment. After the rat is anesthetized by intraperitoneal administration of nenbutal, the stomach is shaved with an electric razor, cleaned with ether, and cut open. The abdominal aorta upper the renal artery is clamped. The UW solution is adapted to be perfused from the abdominal aorta under the renal artery. Grouping: Control group: UW solution only, D-allose group: D-allose is added to the UW solution at a concentration of 5 mg/ml. Experimental method: In the control group and the D-allose group, the kidney is withdrawn after perfusion of the UW solution in each group, put in the UW solution of each of the control group and the D-allose group, and preserved at 4° C. in pre or for 12, 24, 48 or 72 hours. Estimation: Expression of detrimental factor ICAM-1 and regeneration factor EGF in mRNA was examined by northern blot.

human sperms [4] = assay: Survival rate of frozen and thawed sperms, 0.5% Eosin Y dying; format: cell-based; details: freeze-preservative solution using D-allose, liquid nitrogen 1 month (FIG. 17)
Protocol: (§2) Semens of ten healthy men who were 24 to 44 years old (mean: 29.9) with normal semens were used.
(§3) The semen was manually collected after abstinence for 3 to 5 days, liquefied at room temperature, and then washed and concentrated by a 80% Percoll liquid agitation density gradient method. The resulting sperm turbid solution (0.2 ml) and the freeze-preservative solution were mixed in equal amounts, and the mixture was charged into a freezing tube (serum tube, Sumitomo Bakelite), frozen by a liquid nitrogen vapor freezing method, and then preserved in a liquid nitrogen tank. The freeze-preservative solution (refer to FIG. 14) was used such that the mixing amounts of D-allose and D-glucose were changed (A group=1:0, B group=3:1, C group=1:1, D group=1:3, E group=0:1) without changing the number of moles of the sugar in a KS-II sperm preservative solution. One month later, the frozen sperms were thawed in warm water (30° C.) with shaking. Further, for removal of the freeze-preservative solution and reconcentration, the density gradient centrifugation method was conducted, and the resulting sperm floating solution was examined.
(§4) As the examination method, the sperm movement rate was measured by a visual observation method with Makler Counting Chamber and C-IMAGING SYSTEMS, and the survival rate was measured by 0.5% Eosin Y dying. […]

rat kidney = details: pre-administration, cited from earlier work
human sperms [5] = assay: Movement rate of frozen and thawed sperms, visual observation with Makler Counting Chamber; format: cell-based; details: KS-II solution with D-allose alone versus glucose only, liquid nitrogen 1 month, P=0.0469 (FIG. 16)
Protocol: as §2, §3, §4

MPO = assay: Renal ischemic reperfusion model, MPO as index of accumulation of leukocytes; format: in vivo, rat; details: 400 mg/kg intravenously 30 minutes before renal ischemia; peak after 6 hours of reperfusion (FIG. 13)
Protocol: Object: male rats with a body weight of 200˜250 g Experimental method: After anesthetization of a rat with nenbutal, a renal ischemic model is prepared. Renal ischemic model: After extraction of the right kidney, the left kidney blood vessel is clamped for 45 minutes. 400 mg/kg of the solution is intravenously administered to the D-allose group 30 minutes before the renal ischemia. A raw feed is administered to the control group. Estimation: Change with time of a CINC-1 protein amount and MPO as an index of accumulation of leukocytes after ischemic reperfusion

SMILES: O=C[C@H](O)[C@H](O)[C@H](O)[C@H](O)CO [D-allose]
- growth rate of cells after thawing ([1]; freeze-preserved 24 hours at optimum concentration, versus other cases (FIG. 8)): higher in growth rate
- functional impairment of frozen cells ([1]; versus commercially available Cell Banker cell preservative solution): less impaired functionally
- growth rate of cells after thawing [2]: the same results were obtained
- growth rate of cells after thawing (HFB (human fibroblast)): growth rate was high
- antioxidation activity [3]: proved to have the antioxidation activity
- expression of ICAM-1 mRNA during kidney preservation (ICAM-1 mRNA): reduced
- survival rate of thawed sperms (human sperms [4]): did not show a clear effect
- activation and floating of neutrophils after ischemic reperfusion (rat kidney; rat kidney (WO 03/097820)): inhibits
- functional disorder of the kidney (rat kidney; rat kidney ischemic reperfusion (WO 03/097820)): decreases
- movement rate of thawed sperms (human sperms [5]): high in movement rate of thawed sperms in the eight of nine cases
- MPO as the index of accumulation of leukocytes (MPO): inhibited
